Assay results as given in ChEMBL document CHEMBL1201862, “PubChem BioAssay data set” (2004).
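Method: 48-hour compound exposure of cells in 96-well plates, five concentrations, linear interpolation of endpoints. GI50 marks 50% less growth.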 Activity calls are given as the source filed them. Rule as the data show it: active = GI50 up to about 1.1 µM and inactive = higher. Residues, ends and D or L forms follow the SMILES beside them. Groups on a side chain read outwards from the residue. *: point of attachment. Cbz = O=C(OCc1ccccc1)*; Boc = CC(C)(C)OC(=O)*

Key:
Assay in all cases: NCI tumour cell line growth inhibition, 48 h
[1] = tested on: 786-0
[2] = tested on: A498
[3] = tested on: ACHN
[4] = tested on: BT-549
[5] = tested on: CAKI-1
[6] = tested on: CCRF-CEM
[7] = tested on: COLO 205
[8] = tested on: DU-145
[9] = tested on: EKVX
[10] = tested on: HCC 2998
[11] = tested on: HCT-116
[12] = tested on: HCT-15
[13] = tested on: HL-60
[14] = tested on: HOP-62
[15] = tested on: HOP-92
[16] = tested on: HT-29
[17] = tested on: Hs-578T
[18] = tested on: IGROV-1
[19] = tested on: K562
[20] = tested on: KM12
[21] = tested on: LOX IMVI
[22] = tested on: M14
[23] = tested on: MCF7
[24] = tested on: MDA-MB-231
[25] = tested on: MDA-MB-435
[26] = tested on: MOLT-4
[27] = tested on: NCI-H226
[28] = tested on: NCI-H23
[29] = tested on: NCI-H460
[30] = tested on: NCI/ADR-RES
[31] = tested on: OVCAR-4
[32] = tested on: OVCAR-8
[33] = tested on: PC-3
[34] = tested on: RPMI-8226
[35] = tested on: RXF 393
[36] = tested on: SF-268
[37] = tested on: SF-295
[38] = tested on: SF-539
[39] = tested on: SK-MEL-28
[40] = tested on: SK-MEL-2
[41] = tested on: SK-MEL-5
[42] = tested on: SK-OV-3
[43] = tested on: SNB-19
[44] = tested on: SNB-75
[45] = tested on: SR
[46] = tested on: SW-620
[47] = tested on: T47D
[48] = tested on: TK-10
[49] = tested on: U-251
[50] = tested on: UACC-257
[51] = tested on: UACC-62
[52] = tested on: UO-31
[53] = tested on: A549
[54] = tested on: Malme-3M
[55] = tested on: NCI-H522
[56] = tested on: OVCAR-3
[57] = tested on: OVCAR-5
[58] = tested on: SN12C
[59] = tested on: MDA-N

COc1ccccc1NC(=S)N/N=C/c1c(C)n(C)n(-c2ccccc2)c1=O
GI50 [1]: > 100 µM (inactive)
GI50 [2]: 71 µM (inactive)
GI50 [3]: > 100 µM (inactive)
GI50 [4]: > 100 µM (inactive)
GI50 [5]: > 100 µM (inactive)
GI50 [6]: > 100 µM (inactive)
GI50 [7]: > 100 µM (inactive)
GI50 [8]: 40.8 µM (inactive)
GI50 [9]: > 100 µM (inactive)
GI50 [10]: > 100 µM (inactive)
GI50 [11]: > 100 µM (inactive)
GI50 [12]: 41.3 µM
GI50 [13]: > 100 µM (inactive)
GI50 [14]: 53.3 µM (inactive)
GI50 [15]: 43.6 µM (inactive)
GI50 [16]: > 100 µM (inactive)
GI50 [17]: 37.8 µM (inactive)
GI50 [18]: > 100 µM (inactive)
GI50 [19]: > 100 µM (inactive)
GI50 [20]: 31.8 µM (inactive)
GI50 [21]: 49.8 µM (inactive)
GI50 [22]: 61.8 µM (inactive)
GI50 [23]: > 100 µM (inactive)
GI50 [24]: > 100 µM (inactive)
GI50 [25]: 34.6 µM (inactive)
GI50 [26]: 41.5 µM (inactive)
GI50 [27]: 82.4 µM (inactive)
GI50 [28]: > 100 µM (inactive)
GI50 [29]: > 100 µM (inactive)
GI50 [30]: 21.1 µM (inactive)
GI50 [31]: > 100 µM (inactive)
GI50 [32]: 56.9 µM (inactive)
GI50 [33]: > 100 µM (inactive)
GI50 [34]: > 100 µM (inactive)
GI50 [35]: 34.9 µM (inactive)
GI50 [36]: 45.1 µM (inactive)
GI50 [37]: 59.3 µM (inactive)
GI50 [38]: 49.9 µM (inactive)
GI50 [39]: > 100 µM (inactive)
GI50 [40]: > 100 µM (inactive)
GI50 [41]: > 100 µM (inactive)
GI50 [42]: 35.3 µM (inactive)
GI50 [43]: > 100 µM (inactive)
GI50 [44]: 49 µM (inactive)
GI50 [45]: 51.6 µM (inactive)
GI50 [46]: 91.8 µM (inactive)
GI50 [47]: > 100 µM (inactive)
GI50 [48]: > 100 µM (inactive)
GI50 [49]: > 100 µM (inactive)
GI50 [50]: > 100 µM (inactive)
GI50 [51]: > 100 µM (inactive)
GI50 [52]: > 100 µM (inactive)

O=C1CC(c2ccccc2)[S+]([O-])c2ccccc2N1 (centres undefined)
GI50 [1]: > 100 µM (inactive)
GI50 [53]: > 100 µM (inactive)
GI50 [3]: > 100 µM (inactive)
GI50 [4]: > 100 µM (inactive)
GI50 [5]: > 100 µM (inactive)
GI50 [6]: > 100 µM (inactive)
GI50 [7]: > 100 µM (inactive)
GI50 [8]: > 100 µM (inactive)
GI50 [9]: > 100 µM (inactive)
GI50 [11]: > 100 µM (inactive)
GI50 [12]: > 100 µM
GI50 [13]: > 100 µM (inactive)
GI50 [14]: > 100 µM (inactive)
GI50 [16]: > 100 µM (inactive)
GI50 [17]: > 100 µM (inactive)
GI50 [18]: > 100 µM (inactive)
GI50 [19]: > 100 µM (inactive)
GI50 [20]: > 100 µM (inactive)
GI50 [21]: > 100 µM (inactive)
GI50 [22]: > 100 µM (inactive)
GI50 [23]: > 100 µM (inactive)
GI50 [24]: > 100 µM (inactive)
GI50 [25]: > 100 µM (inactive)
GI50 [26]: > 100 µM (inactive)
GI50 [54]: > 100 µM (inactive)
GI50 [27]: > 100 µM (inactive)
GI50 [28]: > 100 µM (inactive)
GI50 [29]: > 100 µM (inactive)
GI50 [55]: > 100 µM (inactive)
GI50 [30]: > 100 µM (inactive)
GI50 [56]: > 100 µM (inactive)
GI50 [31]: > 100 µM (inactive)
GI50 [57]: > 100 µM (inactive)
GI50 [32]: 61.7 µM (inactive)
GI50 [33]: > 100 µM (inactive)
GI50 [34]: > 100 µM (inactive)
GI50 [36]: > 100 µM (inactive)
GI50 [37]: > 10 µM (inactive)
GI50 [39]: > 100 µM (inactive)
GI50 [41]: > 100 µM (inactive)
GI50 [42]: > 100 µM (inactive)
GI50 [58]: > 100 µM (inactive)
GI50 [43]: > 100 µM (inactive)
GI50 [44]: > 100 µM (inactive)
GI50 [45]: 65.2 µM (inactive)
GI50 [47]: > 100 µM (inactive)
GI50 [48]: > 100 µM (inactive)
GI50 [49]: > 100 µM (inactive)
GI50 [50]: 23.1 µM (inactive)
GI50 [51]: > 100 µM (inactive)
GI50 [52]: > 100 µM (inactive)

Clc1ccc(-c2cc(-c3cc(-c4ccc(Cl)cc4)[nH]n3)[nH]n2)cc1
GI50 [2]: > 100 µM (inactive)
GI50 [3]: > 100 µM (inactive)
GI50 [4]: > 100 µM (inactive)
GI50 [7]: > 100 µM (inactive)
GI50 [8]: > 100 µM (inactive)
GI50 [9]: > 100 µM (inactive)
GI50 [11]: > 100 µM (inactive)
GI50 [18]: > 100 µM (inactive)
GI50 [19]: > 100 µM (inactive)
GI50 [22]: > 100 µM (inactive)
GI50 [25]: > 100 µM (inactive)
GI50 [59]: > 100 µM (inactive)
GI50 [26]: > 100 µM (inactive)
GI50 [54]: > 100 µM (inactive)
GI50 [27]: > 100 µM (inactive)
GI50 [28]: > 100 µM (inactive)
GI50 [55]: > 100 µM (inactive)
GI50 [56]: > 100 µM (inactive)
GI50 [57]: > 100 µM (inactive)
GI50 [33]: > 100 µM (inactive)
GI50 [35]: > 100 µM (inactive)
GI50 [40]: > 100 µM (inactive)
GI50 [41]: > 100 µM (inactive)
GI50 [42]: > 100 µM (inactive)
GI50 [47]: > 100 µM (inactive)
GI50 [50]: > 100 µM (inactive)
GI50 [52]: > 100 µM (inactive)

CC(C)CC(NC(=O)OCc1ccccc1)C(=O)NCCCCC(NC(=O)C(CCCCNC(=O)C(CC(C)C)NC(=O)OCc1ccccc1)NC(=O)C(CCCCNC(=O)C(CC(C)C)NC(=O)OCc1ccccc1)NC(=O)C(CCCCNC(=O)C(CC(C)C)NC(=O)OCc1ccccc1)NC(=O)OC(C)(C)C)C(=O)O (centres undefined) (Boc-K([Leu-Cbz])K([Leu-Cbz])K([Leu-Cbz])K([Leu-Cbz])-OH; configuration not given here)
GI50 [1]: > 25 µM (inactive)
GI50 [2]: > 25 µM (inactive)
GI50 [53]: > 25 µM (inactive)
GI50 [3]: > 25 µM (inactive)
GI50 [4]: > 25 µM (inactive)
GI50 [5]: > 25 µM (inactive)
GI50 [6]: > 25 µM (inactive)
GI50 [8]: > 25 µM (inactive)
GI50 [10]: > 25 µM (inactive)
GI50 [11]: > 25 µM (inactive)
GI50 [12]: > 25 µM
GI50 [13]: > 25 µM (inactive)
GI50 [14]: > 25 µM (inactive)
GI50 [16]: > 25 µM (inactive)
GI50 [18]: > 25 µM (inactive)
GI50 [19]: > 25 µM (inactive)
GI50 [21]: > 25 µM (inactive)
GI50 [22]: > 25 µM (inactive)
GI50 [23]: > 25 µM (inactive)
GI50 [24]: > 25 µM (inactive)
GI50 [25]: > 25 µM (inactive)
GI50 [59]: > 25 µM (inactive)
GI50 [26]: > 25 µM (inactive)
GI50 [54]: > 25 µM (inactive)
GI50 [27]: > 25 µM (inactive)
GI50 [28]: > 25 µM (inactive)
GI50 [29]: > 25 µM (inactive)
GI50 [55]: > 25 µM (inactive)
GI50 [56]: > 25 µM (inactive)
GI50 [31]: > 25 µM (inactive)
GI50 [57]: > 25 µM (inactive)
GI50 [32]: > 25 µM (inactive)
GI50 [33]: > 25 µM (inactive)
GI50 [34]: > 25 µM (inactive)
GI50 [36]: > 25 µM (inactive)
GI50 [39]: > 25 µM (inactive)
GI50 [40]: > 25 µM (inactive)
GI50 [41]: > 25 µM (inactive)
GI50 [58]: > 25 µM (inactive)
GI50 [43]: > 25 µM (inactive)
GI50 [44]: > 25 µM (inactive)
GI50 [45]: > 25 µM (inactive)
GI50 [46]: > 25 µM (inactive)
GI50 [47]: > 25 µM (inactive)
GI50 [48]: > 25 µM (inactive)
GI50 [49]: > 25 µM (inactive)
GI50 [50]: > 25 µM (inactive)
GI50 [51]: > 25 µM (inactive)
GI50 [52]: > 25 µM (inactive)
